Key:
[1] = RLM metabolic stability (% remaining); conditions: for RLM 10000 % REM.: 10000 (unit not given); for RLM 100000 % REM.: 100000 (unit not given)
[2] = MLM metabolic stability (% remaining); conditions: for MLM 10000 % REM.: 10000 (unit not given); for MLM 100000 % REM.: 100000 (unit not given)

CCN(CC)C(=O)c1ccc(N(c2cccc(O)c2)C2CCN(Cc3ccccc3F)CC2)cc1 [Example 25, N,N-diethyl-4-[[1-[(2-fluorophenyl)methyl]-4-piperidinyl](3-hydroxyphenyl)amino]-benzamide]
RLM 10000 % REM. [1]: 4%
RLM 100000 % REM. [1]: 71%
MLM 10000 % REM. [2]: 0%
MLM 100000 % REM. [2]: 71%

CCN(CC)C(=O)c1ccc(N(c2cccc(O)c2)C2CCN(Cc3ncc[nH]3)CC2)cc1 [Example 29, N,N-diethyl-4-{3-hydroxy[1-(1H-imidazol-2-ylmethyl)-4-piperidinyl]anilino}benzamide]
RLM 10000 % REM. [1]: 36.5%
RLM 100000 % REM. [1]: 74.5%
MLM 10000 % REM. [2]: 6%
MLM 100000 % REM. [2]: 92.5%

CCN(CC)C(=O)c1ccc(N(c2cc(O)ccc2F)C2CCN(Cc3ccccc3)CC2)cc1 [Example 6, N,N-diethyl-4-[(2-fluoro-5-hydroxyphenyl)[1-(phenylmethyl)-4-piperidinyl]amino]-benzamide]
RLM 10000 % REM. [1]: 5.333%
RLM 100000 % REM. [1]: 81.333%
MLM 10000 % REM. [2]: 2%
MLM 100000 % REM. [2]: 69%

CCN(CC)C(=O)c1ccc(N(c2cccc(O)c2)C2CCN(Cc3ccccc3)CC2)cc1 [Example 1]
RLM 10000 % REM. [1]: 4.333%
RLM 100000 % REM. [1]: 66.125%
MLM 10000 % REM. [2]: 10.4%
MLM 100000 % REM. [2]: 85.2%

CCN(CC)C(=O)c1ccc(N(c2cccc(O)c2)C2CCN(Cc3ccco3)CC2)cc1 [Example 27, N,N-diethyl-4-[[1-(2-furanylmethyl)-4-piperidinyl](3-hydroxyphenyl)amino]-benzamide]
RLM 10000 % REM. [1]: 3.5%
RLM 100000 % REM. [1]: 54.5%
MLM 10000 % REM. [2]: 2%
MLM 100000 % REM. [2]: 65%

CCN(CC)C(=O)c1ccc(N(c2cccc(O)c2)C2CCN(Cc3cccs3)CC2)cc1 [Example 28, N,N-diethyl-4-[(3-hydroxyphenyl)[1-(2-thienylmethyl)-4-piperidinyl]amino]-benzamide]
RLM 10000 % REM. [1]: 1.5%
RLM 100000 % REM. [1]: 52%
MLM 10000 % REM. [2]: 1.5%
MLM 100000 % REM. [2]: 80%

CCN(CC)C(=O)c1ccc(N(c2cccc(O)c2)C2CCN(Cc3ccoc3)CC2)cc1 [Example 15, N,N-diethyl-4-[[1-(3-furanylmethyl)-4-piperidinyl](3-hydroxyphenyl)amino]-benzamide]
RLM 10000 % REM. [1]: 8%
RLM 100000 % REM. [1]: 73%
MLM 10000 % REM. [2]: 3.5%
MLM 100000 % REM. [2]: 83.5%

CCN(CC)C(=O)c1ccc(N(c2cccc(O)c2)C2CCN(Cc3ccc(F)cc3)CC2)cc1 [Example 22, N,N-diethyl-4-[[1-[(4-fluorophenyl)methyl]-4-piperidinyl](3-hydroxyphenyl)amino]-benzamide]
RLM 10000 % REM. [1]: 17%
RLM 100000 % REM. [1]: 63%
MLM 10000 % REM. [2]: 8.5%
MLM 100000 % REM. [2]: 85%

CCN(CC)C(=O)c1ccc(N(c2cccc(O)c2)C2CCN(Cc3cccc(F)c3)CC2)cc1 [Example 24, N,N-diethyl-4-[[1-[(3-fluorophenyl)methyl]-4-piperidinyl](3-hydroxyphenyl)amino]-benzamide]
RLM 10000 % REM. [1]: 3.5%
RLM 100000 % REM. [1]: 87.5%
MLM 10000 % REM. [2]: 3.5%
MLM 100000 % REM. [2]: 71.5%

CCN(CC)C(=O)c1ccc(N(c2cccc(O)c2)C2CCN(Cc3ccc(Br)cc3)CC2)cc1 [Example 20, N,N-diethyl-4-[[1-[(4-bromophenyl)methyl]-4-piperidinyl](3-hydroxyphenyl)amino]-benzamide]
RLM 10000 % REM. [1]: 4.5%
RLM 100000 % REM. [1]: 51.5%
MLM 10000 % REM. [2]: 30.5%
MLM 100000 % REM. [2]: 81.5%

CCN(CC)C(=O)c1ccc(N(c2cccc(O)c2)C2CCN(Cc3ccc(C)cc3)CC2)cc1 [Example 26, N,N-diethyl-4-[(3-hydroxyphenyl)[1-[(4-methylphenyl)methyl]-4-piperidinyl]amino]-benzamide]
RLM 10000 % REM. [1]: 3.5%
RLM 100000 % REM. [1]: 63.5%
MLM 10000 % REM. [2]: 31.5%
MLM 100000 % REM. [2]: 86%

CCN(CC)C(=O)c1ccc(N(c2cccc(O)c2)C2CCN(Cc3ccc(Cl)cc3)CC2)cc1 [Example 21, N,N-diethyl-4-[[1-[(4-chlorophenyl)methyl]-4-piperidinyl](3-hydroxyphenyl)amino]-benzamide]
RLM 10000 % REM. [1]: 2.333%
RLM 100000 % REM. [1]: 45%
MLM 10000 % REM. [2]: 16.333%
MLM 100000 % REM. [2]: 85%

CCN(CC)C(=O)c1ccc(N(c2cccc(O)c2)C2CCN(Cc3ccc(I)cc3)CC2)cc1 [Example 19, N,N-diethyl-4-[(3-hydroxyphenyl)[1-[(4-iodophenyl)methyl]-4-piperidinyl]amino]-benzamide]
RLM 10000 % REM. [1]: 0%
RLM 100000 % REM. [1]: 35.667%
MLM 10000 % REM. [2]: 30.667%
MLM 100000 % REM. [2]: 61.667%

CCN(CC)C(=O)c1ccc(N(c2cccc(O)c2)C2CCN(Cc3ccc(Cl)cc3Cl)CC2)cc1 [Example 23, 4-[[1-[(2,4-dichlorophenyl)methyl]-4-piperidinyl](3-hydroxyphenyl)amino]-N,N-diethyl-benzamide]
RLM 10000 % REM. [1]: 20.5%
RLM 100000 % REM. [1]: 75%
MLM 10000 % REM. [2]: 30.5%
MLM 100000 % REM. [2]: 93%

CCN(CC)C(=O)c1ccc(N(c2cccc(O)c2)C2CCN(Cc3ccsc3)CC2)cc1 [Example 16, N,N-diethyl-4-[(3-hydroxyphenyl)[1-(3-thienylmethyl)-4-piperidinyl]amino]-benzamide]
RLM 10000 % REM. [1]: 1.5%
RLM 100000 % REM. [1]: 66.5%
MLM 10000 % REM. [2]: 5%
MLM 100000 % REM. [2]: 83%

CCN(CC)C(=O)c1ccc(N(c2cccc(O)c2)C2CCN(Cc3ccccn3)CC2)cc1 [Example 30, N,N-diethyl-4-{3-hydroxy[1-(2-pyridinylmethyl)-4-piperidinyl]anilino}benzamide]
RLM 10000 % REM. [1]: 31%
RLM 100000 % REM. [1]: 74%
MLM 10000 % REM. [2]: 26%
MLM 100000 % REM. [2]: 82%
